# In ChEMBL document CHEMBL1129556, “Design, synthesis, and evaluation of latent alkylating agents activated by glutathione S-transferase” (J Med Chem, 1996):
# Assays:
# Homo sapiens [1] = species: Homo sapiens; assay: Inhibitory activity (treatment time 120 min) against MCF-7 pi cell line; assay type: functional; conditions: MCF7, 2 h
# Homo sapiens [2] = species: Homo sapiens; assay: Inhibitory activity (treatment time 120 min) against MCF-7 neo cell line; assay type: functional; conditions: MCF7, 2 h
Compound,IC50 (Homo sapiens [1]),IC50 (Homo sapiens [2])
NC(CCC(=O)NC(CS(=O)(=O)C(COP(=O)(N(CCCl)CCCl)N(CCCl)CCCl)c1ccccc1)C(=O)NCC(=O)O)C(=O)O (stereo not given),13.5 µM,21.3 µM
NC(CCC(=O)NC(CS(=O)(=O)CCOC(=O)N(CCCl)CCCl)C(=O)NCC(=O)O)C(=O)O (stereo not given),85.8 µM,133 µM
CCOC(=O)CNC(=O)C(CS(=O)(=O)CCOC(=O)N(CCCl)CCCl)NC(=O)CCC(N)C(=O)OCC (stereo not given),68.8 µM,102 µM
NC(CCC(=O)NC(CS(=O)(=O)CCOP(=O)(N(CCBr)CCBr)N(CCBr)CCBr)C(=O)NC(C(=O)O)c1ccccc1)C(=O)O (stereo not given),11.4 µM,16.1 µM
NC(CCC(=O)NC(CS(=O)(=O)CCOP(=O)(N(CCCl)CCCl)N(CCCl)CCCl)C(=O)NC(C(=O)O)c1ccccc1)C(=O)O (stereo not given),14.4 µM,39.9 µM
